In test [1] the target is LMP7 (purified human immunoproteasome) (Homo sapiens, UniProt P28062). As to the kind of experiment: Determination of LMP7 activity (fluorescence intensity assay, Suc-LLVY-AMC). Format: biochemical. How it is done:
Determination of LMP7 Activity
Measurement of LMP7 inhibition is performed in 384 well format based on fluorescence intensity assay.
(§1) Purified human immunoproteasome (0.25 nM) and serial diluted compounds in DMSO (range of concentrations from 30 μM to 15 pM) or controls are incubated for 20 minutes or 120 minutes (long incubation) at 25° C. in assay buffer containing 50 mM Tris pH 7.4, 0.03% SDS, 1 mM EDTA and 1% DMSO. The reaction is initiated by the addition of the fluorogenic peptide substrate, Suc-LLVY-AMC (Bachem I-1395), at a concentration of 40 μM. After 60 minutes of incubation at 37° C., fluorescence intensity is measured at λex=350 nm and λem=450 nm with a fluorescence reader (Perkin Elmer Envision reader or equivalent).
(§2) Unless indicated otherwise the results are obtained after incubation for 20 minutes.

Test [2] concerns the target Beta5 (purified human constitutive proteasome) (Homo sapiens, UniProt P28074). As to the kind of experiment: Determination of Beta5 activity (fluorescence intensity assay, Suc-LLVY-AMC). Format: biochemical. How it is done: Determination of Beta5 Activity
Measurement of Beta5 inhibition is performed in 384 well format based on fluorescence intensity assay.
as §1, with “constitutive proteasome (1.25” for “immunoproteasome (0.25”
as §2

pIC50: −log10 of the molar value.

`CCN(CCC(=O)N[C@@H](Cc1ccc(C)cc1)B(O)O)S(=O)(=O)c1ccccc1` [Compound No. 5, [(1R)-1-[3-[benzenesulfonyl(ethyl)amino]propanoylamino]-2-(p-tolyl)ethyl]boronic acid] had a pIC50 in test [1] (incubation for 20 minutes) of more than 7.30.
`CCN(CC(=O)N[C@@H](Cc1ccc(C)cc1C)B(O)O)S(=O)(=O)c1cccc(C)c1` [Compound No. 31, [(1R)-2-(2,4-dimethylphenyl)-1-[[2-[ethyl(m-tolylsulfonyl)amino]-acetyl]amino]ethyl]boronic acid] gave a pIC50 in test [1] (incubation for 20 minutes) of more than 7.30. Also, in test [2] (incubation for 20 minutes), the pIC50 is 6.30 to 7.30 and the “Selectivity LMP7 vs Beta5” value is on record as “++++ (++++: 50 ≤ Selectivity < 70)”.
`CS(=O)(=O)CCC(=O)N[C@@H](Cc1coc2ccccc12)B(O)O` [Compound No. 23, [(1R)-2-(benzofuran-3-yl)-1-(3-methylsulfonylpropanoylamino)ethyl]-boronic acid]: the pIC50 in test [1] (incubation for 20 minutes) is more than 7.30.
Compound `CCC(=O)N(CC)CC(=O)N[C@@H](Cc1ccc(C)cc1C)B(O)O` [Compound No. 24, [(1R)-2-(2,4-dimethylphenyl)-1-[[2-[ethyl(propanoyl)amino]acetyl]-amino]ethyl]boronic acid] gave a pIC50 in test [1] (incubation for 20 minutes) of 6.30 to 7.30. For the same compound, in test [2] (incubation for 20 minutes), the pIC50 was less than 5.30 and the “Selectivity LMP7 vs Beta5” value was “+++++ (+++++: Selectivity ≥ 70)”.
`Cc1ccc(C[C@H](NC(=O)CCN(C(C)C)S(=O)(=O)c2ccccc2)B(O)O)cc1` [Compound No. 6, [(1R)-1-[3-[benzenesulfonyl(isopropyl)amino]propanoylamino]-2-(p-tolyl)ethyl]boronic acid] showed a pIC50 in test [1] (incubation for 20 minutes) of more than 7.30.
The same measure, in the same setting: to `CCS(=O)(=O)N(CCC(=O)N[C@@H](Cc1ccc(C)cc1)B(O)O)c1ccccc1` [Compound No. 2, [(1R)-1-[3-(N-ethylsulfonylanilino)propanoylamino]-2-(p-tolyl)ethyl]boronic acid] belongs more than 7.30.
Take `CCN(CC(=O)N[C@@H](Cc1ccc(C)cc1C)B(O)O)S(=O)(=O)c1ccccc1C` [Compound No. 29, [(1R)-2-(2,4-dimethylphenyl)-1-[[2-[ethyl(o-tolylsulfonyl)amino]acetyl]-amino]ethyl]boronic acid]: the pIC50 in test [1] (incubation for 20 minutes) is more than 7.30. In test [2] (incubation for 20 minutes), the pIC50 was 5.30 to 6.30 and the “Selectivity LMP7 vs Beta5” value was “+++++ (+++++: Selectivity ≥ 70)”.
For the compound `CCN(CCC(=O)N[C@@H](Cc1ccccc1)B(O)O)C(=O)c1ccccc1C` [Compound No. 12, [(1R)-1-[3-[ethyl-(2-methylbenzoyl)amino]propanoylamino]-2-phenyl-ethyl]boronic acid], the pIC50 in test [1] (incubation for 20 minutes) was 6.30 to 7.30.
With `CC(C)N(CCC(=O)N[C@@H](Cc1ccccc1)B(O)O)C(=O)c1ccccc1` [Compound No. 9, [(1R)-1-[3-[benzoyl(isopropyl)amino]propanoylamino]-2-phenyl-ethyl]boronic acid], in test [1] (incubation for 20 minutes), the pIC50 is 6.30 to 7.30. Besides, in test [2] (incubation for 20 minutes), the pIC50 was 5.30 to 6.30 and the “Selectivity LMP7 vs Beta5” value is “+++ (+++: 30 ≤ Selectivity < 50)”.
For `CCN(CCC(=O)N[C@@H](Cc1ccccc1)B(O)O)C(=O)c1ccc(C)cc1` [Compound No. 14, [(1R)-1-[3-[ethyl-(4-methylbenzoyl)amino]propanoylamino]-2-phenyl-ethyl]boronic acid], in that order: more than 7.30, 5.30 to 6.30 and “+++ (+++: 30 ≤ Selectivity < 50)”.
On to `CCN(CCC(=O)N[C@@H](Cc1ccccc1)B(O)O)C(=O)c1cccc(C)c1` [Compound No. 13, [(1R)-1-[3-[ethyl-(3-methylbenzoyl)amino]propanoylamino]-2-phenyl-ethyl]boronic acid], for which the pIC50 in test [1] (incubation for 20 minutes) is 6.30 to 7.30.
As to `Cc1ccc(S(=O)(=O)N(C)CC(=O)N[C@@H](Cc2ccc(C)cc2C)B(O)O)cc1` [Compound No. 32, [(1R)-2-(2,4-dimethylphenyl)-1-[[2-[methyl(p-tolylsulfonyl)amino]-acetyl]amino]ethyl]boronic acid], the pIC50 in test [1] (incubation for 20 minutes) is more than 7.30. Further, in test [2] (incubation for 20 minutes), the pIC50 was 6.30 to 7.30 and the “Selectivity LMP7 vs Beta5” value is “+++++ (+++++: Selectivity ≥ 70)”.
On to `CCN(CCC(=O)N[C@@H](Cc1ccccc1)B(O)O)C(=O)c1ccccc1` [Compound No. 8, [(1R)-1-[3-[benzoyl(ethyl)amino]propanoylamino]-2-phenyl-ethyl]boronic acid], for which the figures for the pIC50 in test [1] (incubation for 20 minutes) and in test [2] (incubation for 20 minutes) were 6.30 to 7.30 and 5.30 to 6.30, respectively. The “Selectivity LMP7 vs Beta5” value in test [2] (incubation for 20 minutes) is listed as “+++ (+++: 30 ≤ Selectivity < 50)”.
For `CCN(CCC(=O)N[C@@H](Cc1ccc(F)cc1)B(O)O)C(=O)c1ccc(Cl)cc1` [Compound No. 26, [(1R)-1-[3-[(4-chlorobenzoyl)-ethyl-amino]propanoylamino]-2-(4-fluorophenyl)ethyl]boronic acid], in that order: more than 7.30, 6.30 to 7.30 and “++++ (++++: 50 ≤ Selectivity < 70)”.
Take `CN(CC(=O)N[C@@H](Cc1ccsc1)B(O)O)C(=O)c1ccccc1C(F)(F)F` [Compound No. 40, [(1R)-1-[[2-[methyl-[2-(trifluoromethyl)benzoyl]amino]acetyl]amino]-2-(3-thienyl)ethyl]boronic acid]: the figures for the pIC50 in test [1] (long incubation (120 min)) and in test [2] (long incubation (120 min)) were 5.30 to 6.30 and less than 5.30, respectively.
In turn, `CCc1cccc(C[C@H](NC(=O)CCCCS(C)(=O)=O)B(O)O)c1` [Compound No. 22, [(1R)-2-(3-ethylphenyl)-1-(5-methylsulfonylpentanoylamino)ethyl]-boronic acid] showed a pIC50 in test [1] (incubation for 20 minutes) of 6.30 to 7.30.
In test [1] (incubation for 20 minutes), `O=C(CCS(=O)(=O)c1ccccc1)N[C@@H](Cc1coc2ccccc12)B(O)O` [Compound No. 4, [(1R)-1-[3-(benzenesulfonyl)propanoylamino]-2-(benzofuran-3-yl)ethyl]boronic acid] had a pIC50 of more than 7.30. Moreover, in test [2] (incubation for 20 minutes), the pIC50 was more than 7.30 and the “Selectivity LMP7 vs Beta5” value is listed as “+++ (+++: 30 ≤ Selectivity < 50)”.
Turning to `CCc1cccc(C[C@H](NC(=O)CCCC(=O)N(C)C)B(O)O)c1` [Compound No. 18, [(1R)-1-[[5-(dimethylamino)-5-oxo-pentanoyl]amino]-2-(3-ethylphenyl)ethyl]boronic acid], the pIC50 in test [1] (incubation for 20 minutes) is 5.30 to 6.30. For the same compound, in test [2] (incubation for 20 minutes), the pIC50 is less than 5.30 and the “Selectivity LMP7 vs Beta5” value is recorded as “+++ (+++: 30 ≤ Selectivity < 50)”.
For `CN(C)C(=O)C(C(=O)N[C@@H](Cc1coc2ccccc12)B(O)O)c1ccccc1` (stereo partly drawn) [Compound No. 38, [(1R)-2-(benzofuran-3-yl)-1-[[3-(dimethylamino)-3-oxo-2-phenyl-propanoyl]amino]ethyl]boronic acid], in that order: more than 7.30, 5.30 to 6.30 and “+++++ (+++++: Selectivity ≥ 70)”.
For `CCN(CC(=O)N[C@@H](Cc1ccc(C)cc1C)B(O)O)C(=O)CSC` [Compound No. 36, [(1R)-2-(2,4-dimethylphenyl)-1-[[2-[ethyl-(2-methylsulfanylacetyl)-amino]acetyl]amino]ethyl]boronic acid], the pIC50 in test [1] (incubation for 20 minutes) was 6.30 to 7.30. In test [2] (incubation for 20 minutes), the pIC50 was less than 5.30 and the “Selectivity LMP7 vs Beta5” value was “++++ (++++: 50 ≤ Selectivity < 70)”.
As to `Cc1ccc(C[C@H](NC(=O)CCN(C(C)C)S(C)(=O)=O)B(O)O)cc1` [Compound No. 15, [(1R)-1-[3-[isopropyl(methylsulfonyl)amino]propanoylamino]-2-(p-tolyl)ethyl]boronic acid], the negative logarithm of the IC50 (pIC50) in test [1] (incubation for 20 minutes) was 6.30 to 7.30.
Still for that read-out and setting: to `CCN(CC(=O)N[C@@H](Cc1ccccc1)B(O)O)C(=O)c1ccccc1` [Compound No. 17, [(1R)-1-[[2-[benzoyl(ethyl)amino]acetyl]amino]-2-phenyl-ethyl]boronic acid] belongs 6.30 to 7.30.
In the case of `CCc1cccc(C[C@H](NC(=O)CCS(C)(=O)=O)B(O)O)c1` [Compound No. 20, [(1R)-2-(3-ethylphenyl)-1-(3-methylsulfonylpropanoylamino)ethyl]-boronic acid], the results for the pIC50 in test [1] (incubation for 20 minutes) and in test [2] (incubation for 20 minutes) were 6.30 to 7.30 and 5.30 to 6.30, respectively. Also, the “Selectivity LMP7 vs Beta5” value in test [2] (incubation for 20 minutes) is given as “+++ (+++: 30 ≤ Selectivity < 50)”.
Take `CCN(CCC(=O)N[C@@H](Cc1ccc(C)cc1)B(O)O)S(=O)(=O)CC` [Compound No. 11, [(1R)-1-[3-[ethyl(ethylsulfonyl)amino]propanoylamino]-2-(p-tolyl)ethyl]boronic acid]: the pIC50 in test [1] (incubation for 20 minutes) was more than 7.30.
For `Cc1ccc(C[C@H](NC(=O)CCN(C)S(=O)(=O)c2ccccc2)B(O)O)cc1` [Compound No. 7, [(1R)-1-[3-[benzenesulfonyl(methyl)amino]propanoylamino]-2-(p-tolyl)ethyl]boronic acid], in test [1] (incubation for 20 minutes), the pIC50 was more than 7.30.
The compound `CC(=O)N(CCC(=O)N[C@@H](Cc1ccccc1)B(O)O)c1ccccc1` [Compound No. 1, [(1R)-1-[3-(N-acetylanilino)propanoylamino]-2-phenyl-ethyl]boronic acid] gave a pIC50 in test [1] (incubation for 20 minutes) of 6.30 to 7.30.
Same read-out and setting: to `CN(CCC(=O)N[C@@H](Cc1ccccc1)B(O)O)C(=O)c1ccccc1` [Compound No. 10, [(1R)-1-[3-[benzoyl(methyl)amino]propanoylamino]-2-phenyl-ethyl]boronic acid] belongs 6.30 to 7.30.

These data come from US10253049B2, “Boronic acid derivatives” (MERCK PATENT GMBH, priority 2014, dated 2019).
